From paper PMC11277056, “Effects of SRI-32743, a Novel Quinazoline Structure-Based Compound, on HIV-1 Tat and Cocaine Interaction with Norepinephrine Transporter” (International Journal of Molecular Sciences, 2024) come the findings set out here.

What all share (type): cell-based
In assay [1] the target is T1, norepinephrine transporter (hNET) (Homo sapiens, UniProt P23975).
T1 construct: gene SLC6A2; WT hNET
Put plainly: [3H]MPP+ preloading and efflux in CHO cells expressing WT hNET.

For assay [2], the target named is T2, dopamine transporter (hDAT) (Homo sapiens, UniProt Q01959).
T2 construct: gene SLC6A3; WT hDAT
T2 sequence (Q01959 whole entry): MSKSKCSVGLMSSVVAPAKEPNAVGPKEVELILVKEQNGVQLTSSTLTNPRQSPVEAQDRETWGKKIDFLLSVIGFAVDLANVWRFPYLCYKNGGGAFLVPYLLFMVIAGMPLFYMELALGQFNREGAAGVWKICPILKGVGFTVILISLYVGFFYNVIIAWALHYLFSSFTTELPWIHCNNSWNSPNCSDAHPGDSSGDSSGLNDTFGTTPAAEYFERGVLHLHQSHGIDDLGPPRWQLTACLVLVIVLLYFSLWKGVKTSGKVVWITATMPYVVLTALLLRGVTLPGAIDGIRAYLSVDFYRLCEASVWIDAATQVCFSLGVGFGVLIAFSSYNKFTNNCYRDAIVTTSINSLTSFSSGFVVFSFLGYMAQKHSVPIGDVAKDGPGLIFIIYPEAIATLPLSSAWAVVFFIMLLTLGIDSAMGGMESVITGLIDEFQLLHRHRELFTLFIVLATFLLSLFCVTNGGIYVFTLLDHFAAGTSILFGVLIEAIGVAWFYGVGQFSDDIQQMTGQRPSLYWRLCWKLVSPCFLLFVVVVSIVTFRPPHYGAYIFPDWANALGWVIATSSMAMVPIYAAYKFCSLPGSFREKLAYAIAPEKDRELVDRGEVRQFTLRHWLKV
Put plainly: [3H]DA uptake inhibition in CHO-K1 cells expressing WT hDAT.

Assay [3] has as its target T1, norepinephrine transporter (hNET). Put plainly: [3H]Nisoxetine competition binding in intact CHO-K1 cells; also [3H]DA uptake inhibition (IC50 […]) and slowed [3H]Nisoxetine dissociation.

T1 sequence (P23975 whole entry): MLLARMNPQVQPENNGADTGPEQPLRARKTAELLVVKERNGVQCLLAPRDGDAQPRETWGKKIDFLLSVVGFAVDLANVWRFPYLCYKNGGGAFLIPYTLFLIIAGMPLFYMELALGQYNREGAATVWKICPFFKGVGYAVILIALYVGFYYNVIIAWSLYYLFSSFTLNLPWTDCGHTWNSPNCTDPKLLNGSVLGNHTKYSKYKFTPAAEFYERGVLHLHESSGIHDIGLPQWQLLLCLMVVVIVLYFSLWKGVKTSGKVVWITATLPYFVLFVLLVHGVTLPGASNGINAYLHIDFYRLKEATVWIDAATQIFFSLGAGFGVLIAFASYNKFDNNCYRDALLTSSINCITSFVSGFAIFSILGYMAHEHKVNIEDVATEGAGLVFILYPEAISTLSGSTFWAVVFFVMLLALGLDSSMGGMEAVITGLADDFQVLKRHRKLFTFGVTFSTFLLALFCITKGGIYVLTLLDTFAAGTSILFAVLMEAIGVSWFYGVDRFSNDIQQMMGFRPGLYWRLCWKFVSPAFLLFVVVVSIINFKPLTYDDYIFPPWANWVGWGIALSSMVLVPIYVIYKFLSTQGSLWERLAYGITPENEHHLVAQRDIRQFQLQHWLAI

Consider `C[n+]1ccc(-c2ccccc2)cc1` [MPP+, N-methyl-4-phenylpyridinium], for which, in assay [1], the “[3H]MPP+ preloading and efflux in CHO cells expressing WT hNET” value was “decreased both basal [^3H]DA and [^3H]MPP^+ efflux via WT hNET compared with the control”.
Consider SRI-32743, for which the values for the IC50 in assay [2] and in assay [3] were 8.16 ± 1.16 µM and 26.4 ± 5.17 µM, respectively.
